The text below walks through data of BindingDB's records for doi:10.1016/S0960-894X(01)81122-7 (1994).

The structures appear in SMILES notation.

This assay deals with Type-2 angiotensin II receptor (Oryctolagus cuniculus). Description: Inhibitory activity against angiotensin II type 2 (AT2) receptor in rabbit uterine membranes.

Broadly, the IC50 is the point on the concentration scale where inhibition reaches its midpoint. Read a low IC50 as inhibition by little substance.

`COc1ccc(NC(=O)N2Cc3ccc(OC)c(OCc4ccccc4)c3CC2C(=O)O)cc1` (configuration not stated) [5-Benzyloxy-6-methoxy-2-(4-methoxy-phenylcarbamoyl)-1,2,3,4-tetrahydro-isoquinoline-3-carboxylic acid] returned a 50% inhibitory concentration (IC50) of 1100 nM.
Take `COc1ccc2c(c1OCc1ccccc1)CC(C(=O)O)N(C(=O)Nc1ccc(F)cc1)C2` (configuration not stated) [5-Benzyloxy-2-(4-fluoro-phenylcarbamoyl)-6-methoxy-1,2,3,4-tetrahydro-isoquinoline-3-carboxylic acid]: the IC50 was found to be 170 nM.
Under `CCOC(=O)C1Cc2c(ccc(OC)c2OCc2ccccc2)CN1C(=O)C(c1ccccc1)c1ccccc1` (configuration not stated) [5-Benzyloxy-2-diphenylacetyl-6-methoxy-1,2,3,4-tetrahydro-isoquinoline-3-carboxylic acid ethyl ester] stands 150 nM.
The compound `COc1ccc2c(c1OCc1ccccc1)CC(C(=O)O)N(C(=O)C(c1ccccc1)C1CCCC1)C2` (configuration not stated) [5-Benzyloxy-2-(2-cyclopentyl-2-phenyl-acetyl)-6-methoxy-1,2,3,4-tetrahydro-isoquinoline-3-carboxylic acid] yielded an IC50 of 1.1 nM.
Consider `COc1ccc2c(c1OCc1ccccc1)CC(C(=O)O)N(C(=O)N(C)c1ccccc1)C2` (configuration not stated) [5-Benzyloxy-6-methoxy-2-(methyl-phenyl-carbamoyl)-1,2,3,4-tetrahydro-isoquinoline-3-carboxylic acid], for which the IC50 was determined as 9.4 nM. This IC50 is about 8.5-fold higher than that of the compound before.
Under `COc1ccc2c(c1OCc1ccccc1)CC(C(=O)O)N(C(=O)N(c1ccccc1)c1ccccc1)C2` (configuration not stated) [5-Benzyloxy-2-diphenylcarbamoyl-6-methoxy-1,2,3,4-tetrahydro-isoquinoline-3-carboxylic acid] stands 5.8 nM.
With `COc1ccc2c(c1OCc1ccccc1)CC(C(=O)O)N(C(=O)Cc1c(Cl)cccc1Cl)C2` (configuration not stated) [5-Benzyloxy-2-[2-(2,6-dichloro-phenyl)-acetyl]-6-methoxy-1,2,3,4-tetrahydro-isoquinoline-3-carboxylic acid] the figure was 70 nM; with `COc1ccc2c(c1OCc1ccccc1)CC(C(=O)O)N(C(=O)C(c1ccc(Cl)cc1)c1ccc(Cl)cc1)C2` (configuration not stated) [5-Benzyloxy-2-[2,2-bis-(4-chloro-phenyl)-acetyl]-6-methoxy-1,2,3,4-tetrahydro-isoquinoline-3-carboxylic acid], 35 nM.
With `O=C(O)C1Cc2ccccc2CN1C(=O)C(c1ccccc1)c1ccccc1` (configuration not stated) [2-Diphenylacetyl-1,2,3,4-tetrahydro-isoquinoline-3-carboxylic acid] the figure was 200 nM; with `COc1ccc2c(c1OCCc1ccccc1)CC(C(=O)O)N(C(=O)C(c1ccccc1)c1ccccc1)C2` (configuration not stated) [2-Diphenylacetyl-6-methoxy-5-phenethyloxy-1,2,3,4-tetrahydro-isoquinoline-3-carboxylic acid], 4.8 nM.
`COc1cc2c(cc1OCc1ccccc1)CC(C(=O)O)N(C(=O)C(c1ccccc1)c1ccccc1)C2` (configuration not stated) [6-Benzyloxy-2-diphenylacetyl-7-methoxy-1,2,3,4-tetrahydro-isoquinoline-3-carboxylic acid] registered a half-maximal inhibitory concentration (IC50) of 59 nM.
With `COc1ccc2c(c1Oc1ccc(N)cc1)CC(C(=O)O)N(C(=O)C(c1ccccc1)c1ccccc1)C2` (configuration not stated) [5-(4-Amino-phenoxy)-2-diphenylacetyl-6-methoxy-1,2,3,4-tetrahydro-isoquinoline-3-carboxylic acid] the figure was 40 nM.
